# According to US11236102B2, “Oxabicycloheptane prodrugs” (Lixte Biotechnology, Inc., priority 2015, dated 2022):
# Where “and” joins values, the source holds several entries; their conditions need not be identical. Equal entries are not always repeated. Entries after “also recorded” stand apart in the source; their conditions may differ.
# What was measured:
# in vivo = conditions: rat, 1.4 mg/kg
# Procedure: 113 was dissolved in 4% NaHCO3 in saline for IV administration. The detailed procedure of dosing solution preparation was presented in Appendix I.
# 15 animals were placed on the study. The animals in IV arm were free access to food and water. For PO dose group, the animals were fasted overnight prior to dosing and the food was resumed 4 hours postdose.
# The IV injection was conducted via foot dorsal vein. PO via oral gavage.
# Blood collection: The animal is restrained manually. Approximately 200 μL of blood/time point is collected into sodium heparin tube via cardiac puncture for terminal bleeding (anesthetized under carbon dioxide). Blood sample will be put on ice and centrifuged to obtain plasma sample (2000 g, 5 min under 4° C.) within 10 minutes.
# Liver collection: The animal will be euthanized with carbon dioxide inhalation. Open abdominal cavity with scissor to expose internal organs. Hold the carcass in an upright position and allow the organs to fall forward. Cut the connective tissues and remove the organs. Then the organs are rinsed with cold saline, dried on filtrate paper, placed into a screw-top tube and weighed, snap frozen by placing into dry-ice immediately.
# Brain collection: Make a mid-line incision in the animals scalp and retract the skin. Using small bone cutters and rongeurs, remove the skull overlying the brain. Remove the brain using a spatula and rinse with cold saline, dried on filtrate paper, placed into a screw-top tube and weighed, snap frozen by placing into dry-ice immediately. […] Plasma, brain and liver samples were stored at approximately −80° C. until analysis. The backup samples will be discarded after three weeks after in-life completion unless requested. The unused dosing solutions will be discarded within three weeks after completion of the study.
# Pharmacokinetic Analysis Software: The PK parameters were determined by non-compartmental model of non-compartmental analysis tool, Pharsight Phoenix WinNonlin® 6.2 software. […] Concentration data within 80%-120% of LLOQ was considered within normal instrumental variation and presented in the results. Terminal t1/2 calculation: Time points were automatic selected by “best fit” model for terminal half life estimation as the first option. Manual selection was applied when “best fit” could not well define the terminal phase. Results
# [1] = Pharmacokinetic study of 157 (iv, po) in SD rats: 157 and endothal in plasma, liver, brain; type: in vivo
# Procedure: The blood, liver and brain tissue samples were collected at predetermined times from rats. […] Compound were diluted shortly before use in 4% sodium bicarbonate for sterile injection (this is the standard pediatric solution of NaHCO3 with a pH of about 8.5).
# Compound 153 was freshly prepared by diluting the drugs shortly before use in 4% sodium bicarbonate for sterile injection (this is the standard pediatric solution of NaHCO3 with a pH of about 8.5). The final concentrations of 153 solutions were 0.25 mg/mL. The 153 solutions were administered via iv or po route at dose volume of 5 ml/kg according to the latest body weight. Compound 157 was freshly prepared by diluting the drugs shortly before use in 4% sodium bicarbonate for sterile injection (this is the standard pediatric solution of NaHCO3 with a pH of about 8.5). […] The 157 solutions were administered via iv or po route at dose volume of 5 ml/kg according to the latest body weight.
# Twelve (12) female SD rats per group were dosed by iv with 153 or 157. The rats were fasted overnight prior to dosing, with free access to water. Foods were withheld for 2 hours post-dose. Blood, liver and brain tissue samples in two animals each group were collected at each time point, within 10% of the scheduled time for each time point. Two extra animals were used for analytic method development.
# Blood (>0.3 mL) were collected via aorta abdominalis in anaesthetic animals into tubes containing heparin at 15 min, 1, 2, 6, 10 and 24 hours after iv administration. Liver and brain tissues were collected immediately after animal death. The liver and brain tissues were excised and rinsed with cold saline to avoid blood residual. Upon collection, each sample was placed on ice and the blood samples were subsequently centrifuged (4° C., 11000 rpm, 5 min) to separate plasma.
# The obtained plasma, liver and brain tissue samples were stored at −70° C. until LC-MS/MS analysis.
# Two (2) female SD rats per group were dosed by po with 153 or 157. The rats were fasted overnight prior to dosing, with free access to water. Foods were withheld for 2 hours post-dose. Blood samples (>0.3 mL) were collected via aorta abdominalis in anaesthetic animals into tubes containing heparin at 30 min, 1, 2, 6, 10 and 24 hours after po administration.
# To each sample, 30 μL IS-D (for blank samples, 20 μL acetonitrile:water (1:1) was added) and 300 ul acetonitrile was added. The sample mixture was vortexed for approximately 3 min. After centrifugation at 10000 rpm for 5 min at 4° C., 100 μL of the upper layer was transferred to a new tube and added 200 μL 0.4% formic acid in water (pH6.0). The mixture was vortexed for approximately 3 min before injected onto the LC/MS/MS system for analysis.
# On the day of the assay, the frozen liver and brain samples were thawed unassisted at room temperature. An about 200 mg weighed sample of each thawed tissue was placed into a plastic tube with water (0.6 mL) to facilitate homogenization. Tissue processing was conducted using a homogenizer for approximately 1 min, […] homogenate was transferred into a fresh Eppendorf tube. To each tube, 50 μL IS-D was added and mixed. Then 500 ul acetonitrile was added and the sample mixture was vortexed for approximately 3 min. After centrifugation at 10000 rpm for 5 min at 4° C., 100 μL of the upper layer was transferred to a new tube and evaporate the supernatant to dryness at 35° C. Reconstitute the residue with 200 μL of 0.4% formic acid in water (pH 6.0), and vortex for 3 min, submit for LC-MS/MS analysis.
# Frozen unknown plasma samples were completely thawed at room temperature and vortexed thoroughly. With a pipette, 50 μL of plasma was transferred into a 2.0 mL Eppendorf tube. 50 μL of 0.1N HCl and 800 μL ethyl acetate were added into each sample. The sample mixture was vortexed for approximately 3 min.
# [2] = Whole blood stability (half-life) and metabolite formation; type: in vitro ADME, rat, dog, monkey and human; conditions: for metabolism in whole blood metabolite study: rat, dog
# Procedure: (§1) The stability (whole blood, liver S9, SGF, SIF, and PBS buffer) and MDCK-MDR1 monolayer permeability of LB100, LB-100 Carbonate and LB-100 POM were evaluated.
# (§2) Samples were analyzed by LC-MS/MS using a SCIEX QTrap 5500 mass spectrometer coupled with an Agilent 1290 HPLC Infinity series, a CTC PAL chilled autosampler, all controlled by Analyst software. After separation on a C18 reverse phase HPLC column (Acquity UPLC HSS T3, 1.8, 2.1×50 mm) using an acetonitrile-water gradient system, peaks were analyzed by mass spectrometry (MS) using […] ionization in MRM mode.
# Whole Blood Stability: Experimental Conditions Experimental Procedure: The stock solution was first diluted in acetonitrile at a concentration that is 100× of the desired final concentration. It was incubated in duplicate with whole blood at 37° C. At indicated times, an aliquot was removed from each experimental and control reaction and mixed with three volumes of ice-cold Stop Solution (methanol containing propranolol as internal standard). Stopped reactions were incubated at least ten minutes at −20° C. The samples were centrifuged to remove precipitated protein, and the supernatants were analyzed by LC-MS/MS to quantitate the remaining parent and the formation of metabolites.
# Data were converted to % remaining by dividing by the time zero concentration value. Data were fit to a first-order decay model to determine half-life.
# [3] = Liver S9 stability and metabolite formation; type: in vitro ADME, rat, dog, monkey and human; conditions: presence and absence of NADPH, cross species
# Procedure: as §1, §2
# Experimental Procedure: Test agent is incubated in duplicate with liver S9 at 37° C. The reaction contains liver S9 protein in 100 mM potassium phosphate, 2 mM NADPH, 3 mM MgCl2, pH 7.4. A control is run for each test agent omitting NADPH to detect NADPH-free degradation. At indicated times, an aliquot is removed from each experimental and control reaction and mixed with an equal volume of ice-cold Stop Solution (methanol, containing internal standard propranolol). Stopped reactions are incubated for 10 minutes at −20° C. Samples are centrifuged to remove precipitated protein, and supernatants are analyzed by LC/MS/MS to quantitate remaining parent and the formation of metabolites. Data are reported as % remaining by dividing by the time zero concentration value.
# [4] = fostriecin iv daily for 5 days, phase I trials; cited from earlier work
# [5] = iv 1.5 mg/kg, 0.25 hr, individual rats, 1.5 mg/kg
# [6] = iv 1.5 mg/kg, 1 hr, individual rats, 1.5 mg/kg
# [7] = iv 1.5 mg/kg, 2 hr, individual rats, 1.5 mg/kg
# [8] = iv administration of 157 at 1.5 mg/kg
# [9] = plasma, 157 1.5 mg/kg IV, individual rats, 1.5 mg/kg
# [10] = plasma, 157 1.5 mg/kg PO, individual rats, 1.5 mg/kg
smiles,measurement,setting,value
CN1CCN(C(=O)C2C(C(=O)OCC(Cl)(Cl)Cl)[C@H]3CC[C@@H]2O3)CC1 (stereo partly shown) [Compound 113],plasma concentration of 113,"in vivo; male, SD, po, 2 hr",2.15 ng/mL
same,concentration at 2 hr,"in vivo; male, SD, po, plasma concentration of 113",2.15 ng/mL
same,AUC(0-t),"in vivo; male, Sprague-Dawley, iv",155 ng·h/mL
same,Tmax,"in vivo; male, Sprague-Dawley, iv",15 min
same,AUC(0-t),"in vivo; male, Sprague-Dawley, po",15.7 ng·h/mL
same,AUC(0-t) of 113,"in vivo; male, Sprague-Dawley, po",15.7 ng·h/mL
same,Cmax,"in vivo; male, Sprague-Dawley, po",17.7 ng/mL
same,F of 113,"in vivo; male, Sprague-Dawley, po",10.1%
same,Tmax,"in vivo; male, Sprague-Dawley, po",15 min
same,clinical symptoms,in vivo,No abnormal clinical symptom was observed
same,AUC(0-last) in brain,in vivo; iv,47.5 ng·h/g
same,AUC(0-last) in liver,in vivo; iv,28.1 ng·h/g
CCCCCCCOC(=O)C1C2CCC(O2)C1C(=O)N1CCN(C)CC1 (stereo not shown) [Compound 157],metabolism to endothal in vivo,[1]; 157 administered to rats,metablozied to endothal in vivo; also recorded: converted to endothal in the plasma
same,oral availability,[1]; 157 at 1.5 mg/kg po to SD rats,poorly orally available
same,157 plasma concentration,"[1]; PO 1.5 mg/kg, 0.5 hr, individual rats, 1.5 mg/kg",5.92 ng/mL and 6.35 ng/mL
same,157 plasma concentration,"[1]; PO 1.5 mg/kg, 0.5 hr, mean",6.14 ng/mL
same,157 plasma concentration,"[1]; PO 1.5 mg/kg, 1 hr, individual rats, 1.5 mg/kg",1.48 ng/mL and 1.26 ng/mL
same,157 plasma concentration,"[1]; PO 1.5 mg/kg, 1 hr, mean",1.37 ng/mL
same,157 plasma concentration,"[1]; PO 1.5 mg/kg, 2 hr, individual rats, 1.5 mg/kg",0.303 ng/mL and 0.194 ng/mL
same,157 plasma concentration,"[1]; PO 1.5 mg/kg, 2 hr, mean",0.249 ng/mL
same,bioavailability,"[1]; female, Sprague-Dawley, rat, in vivo, 157 1.5 mg/kg PO vs IV, mean, read-out: F (bioavailability, BA)",6.78%
same,157 brain concentration,"[1]; iv 1.5 mg/kg, 0.25 hr, individual rats",60.0 ng/g
same,157 liver concentration,[1]; [5],337 ng/g and 257 ng/g
same,157 plasma concentration,[1]; [5],116 ng/mL and 114 ng/mL
same,157 brain concentration,"[1]; iv 1.5 mg/kg, 0.25 hr, mean",60.0 ng/g
same,157 liver concentration,"[1]; iv 1.5 mg/kg, 0.25 hr, mean",297 ng/g
same,157 plasma concentration,"[1]; iv 1.5 mg/kg, 0.25 hr, mean",115 ng/mL
same,157 brain concentration,[1]; [6],1.99 ng/g and 2.80 ng/g
same,157 liver concentration,[1]; [6],29.4 ng/g and 17.6 ng/g
same,157 plasma concentration,[1]; [6],2.67 ng/mL and 3.57 ng/mL
same,157 brain concentration,"[1]; iv 1.5 mg/kg, 1 hr, mean",2.40 ng/g
same,157 liver concentration,"[1]; iv 1.5 mg/kg, 1 hr, mean",23.5 ng/g
same,157 plasma concentration,"[1]; iv 1.5 mg/kg, 1 hr, mean",3.12 ng/mL
same,157 brain concentration,"[1]; iv 1.5 mg/kg, 2 hr, individual rats",BLQ
same,157 liver concentration,[1]; [7],6.40 ng/g and 9.72 ng/g
same,157 plasma concentration,[1]; [7],0.491 ng/mL and 0.556 ng/mL
same,157 liver concentration,"[1]; iv 1.5 mg/kg, 2 hr, mean",8.06 ng/g
same,157 plasma concentration,"[1]; iv 1.5 mg/kg, 2 hr, mean",0.524 ng/mL
same,157 liver concentration,"[1]; iv 1.5 mg/kg, 10 hr, individual rats",BLQ
same,AUClast in brain,[1]; [8],24.6 ng·h/g
same,AUClast in liver,[1]; [8],152 ng·h/g
same,AUC,[1]; [9],47.3 ng·h/mL
same,AUC0-∞,[1]; [9],47.3 ng·h/mL
same,Cmax,[1]; [9],116 ng/mL and 114 ng/mL
same,AUC,"[1]; plasma, 157 1.5 mg/kg IV, mean",47.2 ng·h/mL
same,AUC0-∞,"[1]; plasma, 157 1.5 mg/kg IV, mean",47.2 ng·h/mL
same,AUC,[1]; [10],3 ng·h/mL
same,AUC0-∞,[1]; [10],3 ng·h/mL
CCOC(=O)OCOC(=O)[C@H]1[C@@H](C(=O)N2CCN(C)CC2)[C@@H]2CC[C@H]1O2 [LB-100 Carbonate],metabolite formation in whole blood half-life study,[2]; blood,formation of endothall and LB-100 were observed
same,metabolism in whole blood metabolite study,"[2]; monkey, human",metabolized to endothall and LB-100
CN1CCN(C(=O)C2C3CCC(O3)C2C(=O)OCOC(=O)C(C)(C)C)CC1 (stereo not shown) [LB-100 POM Ester],metabolites observed in liver S9 stability study,[3],metabolites LB-100 and endothall were observed
same,metabolite formation in whole blood half-life study,[2]; cross species,formation of endothall and LB-100 were observed
same,metabolism in whole blood metabolite study,[2]; monkey and human,metabolized to endothall and LB-100
C[C@@](O)(/C=C/[C@H]1CC=CC(=O)O1)[C@@H](C[C@@H](O)\C=C/C=C\C=C\CO)OP(=O)(O)O [fostriecin],dose limiting toxicity,[4],Dose limiting toxicity was not achieved
same,major toxicities,[4],reversible non-cumulative increases in serum creatinine and hepatic enzymes
